Paper PMC12349723, “Computationally accelerated identification of P-glycoprotein inhibitors” (PLOS One, 2025)
“And” between values parts separate entries of the source, which are not always exact repeats. Identical values can stand only once. Like-named read-outs stand apart in the source and are kept apart here.

Experiments:
DU145-TXR cells = assay: MTT viability assay, reversal of MDR (re-sensitization to paclitaxel) in P-gp overexpressing DU145-TXR cells; assay type: cell-based, human; settings: for % Survival, mean / % Survival: 15 µM compound + 500 nM PTX (Paclitaxel, Taxol); for % Survival, mean / % Survival / viability at 15 µM: DU145-TXR; for Re-sensitization of DU145-TXR cells to PTX (reversal of MDR): 15 µM compound with or without 500 nM PTX, 48 h, MTT, re-sensitization = 30% or greater decrease in cell viability; for viability at 15 µM: Homo sapiens, 15 µM Compound Alone
Summary of the method: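 MTT viability testing was done on P-gp overexpressing, multidrug resistant DU145-TXR human prostate cancer cells. They were kept in 10 nM paclitaxel and seeded at 3,000 cells per well in complete RPMI. Cells were exposed to compound, with or without paclitaxel, for 48 hours. MTT was then added for 4 hours, formazan was dissolved in DMSO, and absorbance was read at 570 nm. Survival was expressed relative to control-treated cells.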

A2780 cells = assay: MTT viability assay, parental A2780 cells, with or without PTX; assay type: cell-based, human; settings: for Increase of PTX toxicity against parental A2780 cells: 15 µM compound with or without 500 nM PTX, 48 h, MTT; for Mean % Survival / % Survival (individual sample): A2780 cells; for Mean % Survival / viability at 15 µM: mean of 8 or 12 samples; for % Survival (individual sample): single samples; for viability at 15 µM: Homo sapiens, A2780, A2780 cells, read-out: Mean % Survival
Description: The chemotherapeutic sensitive DU145 human prostate cancer cells and the multidrug resistant sub-line, DU145-TXR, were generous gifts from Dr. Evan Keller (University of Michigan, Ann Arbor, MI). The MDR, P-gp overexpressing DU145-TXR cells were maintained under positive selection pressure by supplementing complete medium with 10 nM paclitaxel (Acros Organics, NJ). In addition to the aforementioned cell lines, the chemotherapeutic sensitive A2780 ovarian cancer cells (93112519, Sigma) and the multidrug resistant A2780-ADR (93112520, Sigma) were maintained in complete RPMI media consisting of RPMI-1640 with L-glutamine, 10% fetal bovine serum (FBS; Corning), 100 U/mL penicillin and 100 μg/mL streptomycin in a humidified incubator at 37 °C and 5% CO2. The MDR, P-gp overexpressing A2780-ADR cell line was maintained under positive selection pressure by supplementing complete medium with 100 nM doxorubicin (Fisher Scientific, NJ). The non-cancerous HFL1 (human lung fibroblast) cell line cell line was a generous gift from Dr. Robert Harrod (Southern Methodist University, Dallas, TX) and was maintained in complete F12K media consisting of F12K with 10% fetal bovine serum, 100 U/mL penicillin, and 100 µg/mL streptomycin (Gibco). Flasks and 96 well plates that were used with the non-cancerous line HFL1 were pre-treated with 0.1 mg/ml Collagen Type 1 (Gibco) and rinsed with PBS (Fisher).
Culture of the DU145, DU145-TXR, and HFL1 cell lines was performed as described in [8]. Culture of the A2780 and A2780-ADR cell lines was performed as described in [9]. MTT assays were performed as described in [8] with minor modifications. LC-MS/MS accumulation assays were performed as described in {Nanayakkara, 2018 #173} [9] with some modifications. […] The inhibitor concentration was lowered to 15 µM here, as the goal of the study was to identify compounds that were effective in reversing MDR at low concentrations, and to determine if the expanded virtual-assisted methods improved on our first-draft attempt. Compounds 56–98 were pre-screened using Resazurin cell viability assays: cells were incubated with 15 µM compound with or without 500 nM PTX for 48 hours, after which cell survival was assessed similar to [39]. Data represent the mean of two separate experiments, with n = 3 samples per experiment (n = 6 total) (S4 Table). The top performing compounds from this initial screen were re-tested with MTT viability assays against DU145-TXR cells, as described below.
MTT assays measure the reduction of yellow, water soluble 3-(4,5-dimethylthiazol-2-yl)-2,5-diphenyltetrazolium bromide (MTT) to blue, insoluble formazan crystals by cellular reductase processes in living cells. Cells were trypsinized from monolayers and seeded in complete medium in 96 well plates. Cancerous cell lines (DU145, DU145-TXR, A2780, A2780-ADR) were seeded at 3,000 cells per well in complete RPMI medium. The non-cancerous HFL1 line was seeded at 4,000 cells per well in complete F12K medium, in collagen-treated plates (Collagen Type 1, Gibco). Cells were incubated with experimental compounds for 48 hours at 37 °C and 5% CO2 in a humidified incubator. At 48 hours, MTT was added (20 µL/well of 5 mg/mL MTT in PBS) to each well. After incubation for 4 hours, the media was removed, and the formazan crystals were dissolved in 100 µL DMSO per well. Plates containing the semi-adherent A2780 or A2780-ADR lines were spun at 1400 rpm for 3 minutes prior to aspiration of media, and the addition of DMSO. Plates were shaken for 10 minutes at 500 rpm on an Orbital shaker (LabDoctor from MidSci, St Louis, MO). The absorbance was measured at 570 nm using a Bio-Tek Cytation 5 (Bio-Tek, Winooski, VT). The measured absorbance value was correlated with the number of metabolically active cells in that well, corrected for absorbance of media. […]

P-gp = assay: SWISS-ADME prediction of P-gp transport substrate; settings: prediction compared to the LC-MS/MS intracellular accumulation data
Source text: Identifying P-gp inhibitors that are not transport substrates remains inherently challenging. To that end, computational tools such as the SWISS-ADME server attempt to use a molecule’s unique chemical and structural characteristics to predict whether it is likely to be a P-gp transport substrate. Our LC-MS/MS assays allowed us to retroactively test the validity of predictions from SWISS-ADME. […] Alternative identifiers for the molecules identified in this study are shown in S7 Table.
S1 Table. Known P-gp Inhibitors and Predicted Chemical Properties. A non-exhaustive list of known P-gp inhibitors and their selected chemical properties ^[64, 65]. Clinical trial outcomes were adapted from ^[10, 11]. Compounds were evaluated using the SWISS-ADME server ^[54]. […] “Predicted P-gp Substrate” - predicted by SWISS-ADME to be a transport substrate of P-gp. “Known P-gp Substrate” – In addition to being P-gp inhibitors, these molecules are: known transport substrates of P-gp, known non-transport substrates of P-gp, unknown whether it is a transport substrate of P-gp ^[66-68]. If the molecule is designated in a specific generation of P-gp inhibitors - First Generation P-gp inhibitors, Second generation P-gp inhibitors, Third generation P-gp inhibitors.

[1] = mean of 8 samples, read-out: % Survival, mean
[2] = trial 1, sample 1, read-out: % Survival
[3] = trial 1, sample 2, read-out: % Survival
[4] = trial 1, sample 3, read-out: % Survival
[5] = trial 1, sample 4, read-out: % Survival
[6] = trial 2, sample 1, read-out: % Survival
[7] = trial 2, sample 2, read-out: % Survival
[8] = trial 2, sample 3, read-out: % Survival
[9] = trial 2, sample 4, read-out: % Survival

Structure (SMILES)	% Survival, mean (DU145-TXR cells; mean of 8 samples) [%]	% Survival (DU145-TXR cells; trial 1, sample 1) [%]	% Survival (DU145-TXR cells; trial 1, sample 2) [%]	% Survival (DU145-TXR cells; trial 1, sample 3) [%]	% Survival (DU145-TXR cells; trial 1, sample 4) [%]	% Survival (DU145-TXR cells; trial 2, sample 1) [%]	% Survival (DU145-TXR cells; trial 2, sample 2) [%]	% Survival (DU145-TXR cells; trial 2, sample 3) [%]	% Survival (DU145-TXR cells; trial 2, sample 4) [%]	Re-sensitization of DU145-TXR cells to PTX (reversal of MDR) (DU145-TXR cells)	viability at 15 µM (DU145-TXR cells; [1]) [%]	viability at 15 µM (DU145-TXR cells; [2]) [%]	viability at 15 µM (DU145-TXR cells; [3]) [%]	viability at 15 µM (DU145-TXR cells; [4]) [%]	viability at 15 µM (DU145-TXR cells; [5]) [%]	viability at 15 µM (DU145-TXR cells; [6]) [%]	viability at 15 µM (DU145-TXR cells; [7]) [%]	viability at 15 µM (DU145-TXR cells; [8]) [%]	viability at 15 µM (DU145-TXR cells; [9]) [%]	Increase of PTX toxicity against parental A2780 cells (A2780 cells)	also measured
O=C(c1nc(-c2ccc3cc[nH]c3c2)no1)N1CCN(c2nsc3ccccc23)CC1 [Compound 70, O=C(N1CCN(CC1)c1nsc2ccccc12)c1nc(no1)-c1ccc2cc[nH]c2c1]	47.0	51	55	50	54	41	36	46	43	re-sensitized DU145-TXR cells to PTX	91.3	92	103	101	96	90	83	85	80	did not greatly increase the toxicity of PTX against the parental A2780 cells	Mean % Survival (A2780 cells; 15 µM compound + 500 nM PTX): 22.6%; % Survival (individual sample) (A2780 cells; 15 µM compound + 500 nM PTX): 14%; % Survival (individual sample) (A2780 cells; 15 µM compound alone): 88%; viability at 15 µM (A2780 cells; 15 µM compound alone): 89.4%; Correct P-gp Substrate Prediction? (P-gp): No
Cc1onc(-c2ccccc2)c1-c1nnc(Cn2cnc3c(oc4ccccc43)c2=O)o1 [Compound 78, Cc1onc(c1-c1nnc(Cn2cnc3c4ccccc4oc3c2=O)o1)-c1ccccc1]	40.6	40	45	44	45	34	40	35	41	re-sensitized DU145-TXR cells to PTX	93.3	90	107	99	93	91	89	93	83	did not greatly increase the toxicity of PTX against the parental A2780 cells	Mean % Survival (A2780 cells; 15 µM compound + 500 nM PTX): 13.4%; % Survival (individual sample) (A2780 cells; 15 µM compound + 500 nM PTX): 8% and 18%; % Survival (individual sample) (A2780 cells; 15 µM compound alone): 110%; viability at 15 µM (A2780 cells; 15 µM compound alone): 91.4%; Correct P-gp Substrate Prediction? (P-gp): No
O=S(=O)(CCSc1nnc(-c2ccccc2)c2ccccc12)c1ccccc1 [Compound 96, O=S(=O)(CCSc1nnc(-c2ccccc2)c2ccccc12)c1ccccc1]	55.3	56	66	66	63	47	50	48	46	re-sensitized DU145-TXR cells to PTX	89.2	101	100	98	93	85	85	80	71	did not greatly increase the toxicity of PTX against the parental A2780 cells	Mean % Survival (A2780 cells; 15 µM compound + 500 nM PTX): 13.9%; % Survival (individual sample) (A2780 cells; 15 µM compound + 500 nM PTX): 19% and 20%; viability at 15 µM (A2780 cells; 15 µM compound alone): 76.5%; Correct P-gp Substrate Prediction? (P-gp): Yes
